In ChEMBL document CHEMBL3400033, “Molecular docking and antiviral activity of N-substituted benzyl/phenyl-2-(3,4-dimethyl-5,5-dioxidopyrazolo[4,3-c][1,2]benzothiazin-2(4H)-yl)acetamides” (Bioorg Med Chem Lett, 2015):

What follows are molecules tested on CCRF-CEM (assay: Cytotoxicity against human CEM cells assessed as reduction in cell viability after 5 days by Cell Titer 96 Aqueous One Solution cell proliferation assay). Details: 120 h.
Assay type: cell-based

SMILES	IC50
Cc1c2c(nn1CC(=O)NCc1ccccc1Br)-c1ccccc1S(=O)(=O)N2C	38.1 µM
Cc1ccccc1CNC(=O)Cn1nc2c(c1C)N(C)S(=O)(=O)c1ccccc1-2	> 100 µM
Cc1c2c(nn1CC(=O)NCc1ccc(F)cc1)-c1ccccc1S(=O)(=O)N2C	41.9 µM
COc1ccccc1CNC(=O)Cn1nc2c(c1C)N(C)S(=O)(=O)c1ccccc1-2	> 100 µM
COc1cccc(NC(=O)Cn2nc3c(c2C)N(C)S(=O)(=O)c2ccccc2-3)c1	9.3 µM
COc1cccc(CNC(=O)Cn2nc3c(c2C)N(C)S(=O)(=O)c2ccccc2-3)c1	28.8 µM
COc1ccc(NC(=O)Cn2nc3c(c2C)N(C)S(=O)(=O)c2ccccc2-3)c(OC)c1	> 100 µM
Cc1c2c(nn1CC(=O)Nc1cccc(Br)c1)-c1ccccc1S(=O)(=O)N2C	5.2 µM
Cc1ccc(CNC(=O)Cn2nc3c(c2C)N(C)S(=O)(=O)c2ccccc2-3)cc1	> 100 µM
Cc1c2c(nn1CC(=O)Nc1ccccc1)-c1ccccc1S(=O)(=O)N2C	< 1 µM
Cc1c2c(nn1CC(=O)NCc1ccccc1Cl)-c1ccccc1S(=O)(=O)N2C	68.4 µM
Cc1c2c(nn1CC(=O)NCc1ccccc1F)-c1ccccc1S(=O)(=O)N2C	82 µM
COc1ccc(CNC(=O)Cn2nc3c(c2C)N(C)S(=O)(=O)c2ccccc2-3)cc1	> 100 µM
Cc1c2c(nn1CC(=O)Nc1ccccc1F)-c1ccccc1S(=O)(=O)N2C	9.5 µM
Cc1c2c(nn1CC(=O)Nc1ccccc1Br)-c1ccccc1S(=O)(=O)N2C	6 µM

The molecules below were run on Human immunodeficiency virus 1 (assay: Antiviral activity against HIV1 LAV-1 infected in human PBMC cells after 6 days by RT assay). Details: Human immunodeficiency virus 1, LAV-1, PBMC, 144 h.
Assay type: functional, organism-based

SMILES	EC50	EC90
Cc1c2c(nn1CC(=O)NCc1ccccc1Br)-c1ccccc1S(=O)(=O)N2C	16.7 µM	87.5 µM
Cc1ccccc1CNC(=O)Cn1nc2c(c1C)N(C)S(=O)(=O)c1ccccc1-2	≥ 100 µM	> 100 µM
Cc1c2c(nn1CC(=O)NCc1ccc(F)cc1)-c1ccccc1S(=O)(=O)N2C	22.4 µM	≥ 100 µM
COc1ccccc1CNC(=O)Cn1nc2c(c1C)N(C)S(=O)(=O)c1ccccc1-2	17.2 µM	60.3 µM
COc1cccc(NC(=O)Cn2nc3c(c2C)N(C)S(=O)(=O)c2ccccc2-3)c1	7.2 µM	17.3 µM
COc1cccc(CNC(=O)Cn2nc3c(c2C)N(C)S(=O)(=O)c2ccccc2-3)c1	21.1 µM	92 µM
COc1ccc(NC(=O)Cn2nc3c(c2C)N(C)S(=O)(=O)c2ccccc2-3)c(OC)c1	> 100 µM	> 100 µM
Cc1c2c(nn1CC(=O)Nc1cccc(Br)c1)-c1ccccc1S(=O)(=O)N2C	6.3 µM	15.3 µM
Cc1ccc(CNC(=O)Cn2nc3c(c2C)N(C)S(=O)(=O)c2ccccc2-3)cc1	9.9 µM	77.7 µM
Cc1c2c(nn1CC(=O)Nc1ccccc1)-c1ccccc1S(=O)(=O)N2C	6.8 µM	16.3 µM
Cc1c2c(nn1CC(=O)NCc1ccccc1Cl)-c1ccccc1S(=O)(=O)N2C	15.9 µM	28.5 µM
Cc1c2c(nn1CC(=O)NCc1ccccc1F)-c1ccccc1S(=O)(=O)N2C	57.5 µM	≥ 100 µM
COc1ccc(CNC(=O)Cn2nc3c(c2C)N(C)S(=O)(=O)c2ccccc2-3)cc1	18.6 µM	≥ 100 µM
Cc1c2c(nn1CC(=O)Nc1ccccc1F)-c1ccccc1S(=O)(=O)N2C	7.6 µM	35.4 µM
Cc1c2c(nn1CC(=O)Nc1ccccc1Br)-c1ccccc1S(=O)(=O)N2C	6.5 µM	15.7 µM

These molecules were tested on PBMC (assay: Cytotoxicity against human PBMC cells assessed as reduction in cell viability after 5 days by Cell Titer 96 Aqueous One Solution cell proliferation assay). Details: 120 h.
Assay type: cell-based

SMILES	IC50
Cc1c2c(nn1CC(=O)NCc1ccccc1Br)-c1ccccc1S(=O)(=O)N2C	63.1 µM
Cc1ccccc1CNC(=O)Cn1nc2c(c1C)N(C)S(=O)(=O)c1ccccc1-2	> 100 µM
Cc1c2c(nn1CC(=O)NCc1ccc(F)cc1)-c1ccccc1S(=O)(=O)N2C	> 100 µM
COc1ccccc1CNC(=O)Cn1nc2c(c1C)N(C)S(=O)(=O)c1ccccc1-2	≥ 100 µM
COc1cccc(NC(=O)Cn2nc3c(c2C)N(C)S(=O)(=O)c2ccccc2-3)c1	10.5 µM
COc1cccc(CNC(=O)Cn2nc3c(c2C)N(C)S(=O)(=O)c2ccccc2-3)c1	18.7 µM
COc1ccc(NC(=O)Cn2nc3c(c2C)N(C)S(=O)(=O)c2ccccc2-3)c(OC)c1	> 100 µM
Cc1c2c(nn1CC(=O)Nc1cccc(Br)c1)-c1ccccc1S(=O)(=O)N2C	8.1 µM
Cc1ccc(CNC(=O)Cn2nc3c(c2C)N(C)S(=O)(=O)c2ccccc2-3)cc1	52.2 µM
Cc1c2c(nn1CC(=O)Nc1ccccc1)-c1ccccc1S(=O)(=O)N2C	7.7 µM
Cc1c2c(nn1CC(=O)NCc1ccccc1Cl)-c1ccccc1S(=O)(=O)N2C	74.2 µM
Cc1c2c(nn1CC(=O)NCc1ccccc1F)-c1ccccc1S(=O)(=O)N2C	87.5 µM
COc1ccc(CNC(=O)Cn2nc3c(c2C)N(C)S(=O)(=O)c2ccccc2-3)cc1	> 100 µM
Cc1c2c(nn1CC(=O)Nc1ccccc1F)-c1ccccc1S(=O)(=O)N2C	18 µM
Cc1c2c(nn1CC(=O)Nc1ccccc1Br)-c1ccccc1S(=O)(=O)N2C	2.4 µM

What follows are molecules tested on Human immunodeficiency virus 1 (assay: Antiviral activity against HIV1). Details: not given.
Assay type: functional, organism-based

SMILES	EC50
C/C(=N\NC(=O)CN1c2c(-c3ccccc3)n[nH]c2-c2ccccc2S1(=O)=O)c1cc(Cl)sc1Cl	3.2 µM

Each molecule was assayed on Vero (assay: Cytotoxicity against african green monkey Vero cells assessed as reduction in cell viability after 5 days by Cell Titer 96 Aqueous One Solution cell proliferation assay). Details: Chlorocebus sabaeus, 120 h.
Assay type: cell-based

SMILES	IC50
Cc1c2c(nn1CC(=O)NCc1ccccc1Br)-c1ccccc1S(=O)(=O)N2C	36.5 µM
Cc1ccccc1CNC(=O)Cn1nc2c(c1C)N(C)S(=O)(=O)c1ccccc1-2	> 100 µM
Cc1c2c(nn1CC(=O)NCc1ccc(F)cc1)-c1ccccc1S(=O)(=O)N2C	> 100 µM
COc1ccccc1CNC(=O)Cn1nc2c(c1C)N(C)S(=O)(=O)c1ccccc1-2	> 100 µM
COc1cccc(NC(=O)Cn2nc3c(c2C)N(C)S(=O)(=O)c2ccccc2-3)c1	≥ 100 µM
COc1cccc(CNC(=O)Cn2nc3c(c2C)N(C)S(=O)(=O)c2ccccc2-3)c1	31.1 µM
COc1ccc(NC(=O)Cn2nc3c(c2C)N(C)S(=O)(=O)c2ccccc2-3)c(OC)c1	> 100 µM
Cc1c2c(nn1CC(=O)Nc1cccc(Br)c1)-c1ccccc1S(=O)(=O)N2C	7.2 µM
Cc1ccc(CNC(=O)Cn2nc3c(c2C)N(C)S(=O)(=O)c2ccccc2-3)cc1	63.1 µM
Cc1c2c(nn1CC(=O)Nc1ccccc1)-c1ccccc1S(=O)(=O)N2C	6.8 µM
Cc1c2c(nn1CC(=O)NCc1ccccc1Cl)-c1ccccc1S(=O)(=O)N2C	38.7 µM
Cc1c2c(nn1CC(=O)NCc1ccccc1F)-c1ccccc1S(=O)(=O)N2C	96.1 µM
COc1ccc(CNC(=O)Cn2nc3c(c2C)N(C)S(=O)(=O)c2ccccc2-3)cc1	73 µM
Cc1c2c(nn1CC(=O)Nc1ccccc1F)-c1ccccc1S(=O)(=O)N2C	28.2 µM
Cc1c2c(nn1CC(=O)Nc1ccccc1Br)-c1ccccc1S(=O)(=O)N2C	8.2 µM
